From ChEMBL document CHEMBL1136674, “Antimycobacterial pimarane diterpenes from the Fungus Diaporthe sp” (Bioorg Med Chem Lett, 2003)
≈ marks a conversion by molar mass, not a printed value.

Columns and labels:
[1] = system: Mycobacterium tuberculosis; assay: Antitubercular activity against Mycobacterium tuberculosis; assay type: functional
Vero = assay: Cytotoxicity against vero cell line; assay type: functional, cell-based; settings: Chlorocebus sabaeus
KB = assay: Cytotoxicity against KB cell line; assay type: functional, cell-based; settings: Homo sapiens
BC1 cell line = assay: Cytotoxicity against BC-1 cell line; assay type: functional, cell-based; settings: Homo sapiens

Row | Compound | MIC [1] [µg/mL] | IC50 (Vero) [µg/mL] | IC50 (KB) [µg/mL] | IC50 (BC1 cell line) [µg/mL]
1 | C=C[C@]1(C)C=C2C(O)[C@]3(O)OC[C@@]4(CCCC(C)(C)[C@@]43O)[C@@]2(O)[C@H](O)C1 (stereo partly drawn) [DIAPORTHEIN A] | 200 (≈ 546 µM) | > 50 | – | –
2 | C=C[C@]1(C)C=C2C(=O)[C@]3(O)OC[C@@]4(CCCC(C)(C)[C@@]43O)[C@@]2(O)[C@H](O)C1 [DIAPORTHEIN B] | 3.1 (≈ 8.51 µM) | 1.5 (≈ 4.12 µM) | – | –
3 | Cc1c2ccncc2c(C)c2c1[nH]c1ccccc12 [ELLIPTECINE] | – | – | 0.3 (≈ 1.22 µM) | 0.3 (≈ 1.22 µM)
4 | NNC(=O)c1ccncc1 [ISONIAZID] | 0.09 (≈ 0.656 µM) | – | – | –
5 | NC[C@H]1O[C@H](O[C@H]2[C@H](O)[C@@H](O[C@H]3O[C@H](CO)[C@@H](O)[C@H](N)[C@H]3O)[C@H](N)C[C@@H]2N)[C@H](O)[C@@H](O)[C@@H]1O.O=S(=O)(O)O [KANAMYCIN SULFATE] | 5 | – | – | –
